# Measurements: patent US9428507B2, “Compounds for the treatment of malaria” (The Broad Institute, Inc., priority 2013, dated 2016)
# System: Dd2 strain of P. falciparum
# Test: Activity against the Dd2 strain of P. falciparum (SYBR Green I, 72-h incubation)
# Assay type: cell-based
# Settings: Plasmodium falciparum, DD2, 72 h, read-out: EC^50 Dd2
# Procedure, shortened: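 SYBR Green I signal (ex 485, em 530 nm) measured growth, read after 24 h dark staining in saponin/Triton lysis buffer. Before that, compound-exposed Dd2 cultures (1% parasitemia, 1.0% hematocrit, 0.125% DMSO) grew 72 h at 37° C in low-oxygen gas. Background control: 20 μM mefloquine.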
row,EC50 [nM],Compound
1,14 to 58,"CCS(=O)(=O)N1CC2(CCN(C(=O)Nc3ccccc3F)CC2)c2c([nH]c3cc(OC)ccc23)[C@@H]1CO [Compound 150, (R)-2′-(ethylsulfonyl)-N-(2-fluorophenyl)-1′-(hydroxymethyl)-7′-methoxy-1′,2′,3′,9′-tetrahydrospiro [piperidine-4,4′-pyrido[3,4-b]indole]-1-carboxamide]"
2,779,"COc1ccc2c3c(n(C)c2c1)[C@@H](CO)N(C(=O)C1CCC1)CC31CN(C(=O)Nc2cccc(F)c2)C1 [Compound 110, (S)-2′-(cyclobutanecarbonyl)-N-(3-fluorophenyl)-1′-(hydroxymethyl)-7′-methoxy-9′-methyl-1′,2′,3′,9′-tetrahydrospiro [azetidine-3,4′-pyrido[3,4-b]indole]-1-carboxamide]"
3,880,"CCS(=O)(=O)N1CCC2(CC1)CN(S(=O)(=O)c1ccc(C)cc1)[C@@H](CO)c1[nH]c3cc(OC)ccc3c12 [Compound 124, (R)-(1-(ethylsulfony1)-7′-methoxy-2′-tosyl-1′,2′,3′,9′-tetrahydrospiro [piperidine-4,4′-pyrido[3,4-b]indol]-1′-yl)methanol]"
4,5760,"COc1ccc2c3c([nH]c2c1)[C@H](CO)N(C(C)=O)CC31CCN(c2nc3ccccc3s2)CC1 [Compound 137, (R)-1-(1-(benzo[d]thiazol-2-yl)-1′-(hydroxymethyl)-7′-methoxyspiro [piperidine-4,4′-pyrido[3,4-b]indol]-2′(1′H,3′H,9′H)-yl) ethanone]"
5,214 to 345,"COc1ccc2c3c([nH]c2c1)[C@H](CO)N(C(C)=O)CC31CCN(C(=O)Nc2ccccc2Cl)CC1 [Compound 1, (R)-2′-acetyl-N-(2-chlorophenyl)-1′-(hydroxymethyl)-7′ -methoxy-1′,2′,3′,9′-tetrahydrospiro [piperidine-4,4′-pyrido [3,4-b]indole]-1-carboxamide]"
6,951,"COc1ccc2c3c(n(C)c2c1)[C@H](CO)N(C(=O)Nc1ccc(F)cc1)CC31CCN(S(=O)(=O)c2cccc(F)c2)CC1 [Compound 114, (R)-N-(4-fluorophenyl)-1-((3-fluorophenyl)sulfonyl)-1′-(hydroxymethyl)-7′-methoxy-9′-methyl-3′,9′-dihydrospiro [piperidine-4,4′-pyrido[3,4-b]indole]-2′(1′H)-carboxamide]"
7,2530,"COc1cccc(S(=O)(=O)N2CCC3(CC2)CN[C@H](CO)c2[nH]c4cc(OC)ccc4c23)c1 [Compound 84, (S)-(7′-methoxy-1-((3-methoxyphenyl)sulfonyl)-1′,2′,3′,9′-tetrahydrospiro [piperidine-4,4′-pyrido[3,4-b]indol]-1′-yl)methanol]"
8,96,"COc1ccc(NC(=O)N2CCC3(CC2)CN(C(=O)C2CCC2)[C@H](CO)c2c3c3ccc(OC)cc3n2C)cc1 [Compound 86, (S)-2′-(cyclobutanecarbonyl)-1′-(hydroxymethyl)-7′-methoxy-N-(4-methoxyphenyl)-9′-methyl-1′,2′,3′,9′-tetrahydrospiro [piperidine-4,4′-pyrido[3,4-b]indole]-1-carboxamide]"
9,437,"COc1ccc(NC(=O)N2CC3(C2)CN(C(=O)C2CCC2)[C@H](CO)c2c3c3ccc(OC)cc3n2C)cc1 [Compound 126, (S)-2′-(cyclobutanecarbonyl)-1′-(hydroxymethyl)-7′-methoxy-N-(4-methoxyphenyl)-9′-methyl-1′,2′,3′,9′-tetrahydrospiro [azetidine-3,4′-pyrido[3,4-b]indole]-1-carboxamide]"
10,1600 to 3280,"COc1ccc2c3c([nH]c2c1)[C@H](CO)N(C(C)=O)CC31CCN(S(=O)(=O)Cc2ccccc2F)CC1 [Compound 44, (R)-1-(1-((2-fluorobenzyl)sulfonyl)-1′-(hydroxymethyl)-7′-methoxyspiro[piperidine-4,4′-pyrido[3,4-b]indol]-2′(1′H,3′H,9′H)-yl)ethanone]"
11,343,"COc1ccc2c3c(n(C)c2c1)[C@@H](CO)N(C(=O)C1CC1)CC31CCN(C(=O)Nc2cccc(F)c2)CC1 [Compound 125, (S)-2′-(cyclopropanecarbonyl)-N-(3-fluorophenyl)-1′-(hydroxymethyl)-7′-methoxy-9′-methyl-1′,2′,3′,9′-tetrahydrospiro [piperidine-4,4′-pyrido[3,4-b]indole]-1-carboxamide]"
12,1960,"CCC(=O)N1CCC2(CC1)CN(Cc1cc(F)ccc1F)[C@H](CO)c1[nH]c3cc(OC)ccc3c12 [Compound 118, (S)-1-(2′-(2,5-difluorobenzyl)-1′-(hydroxymethyl)-7′-methoxy-1′,2′,3′,9′-tetrahydrospiro [piperidine-4,4′-pyrido[3,4-b]indol]-1-yl) propan-1-one]"
13,7440,"COc1ccc2c3c([nH]c2c1)[C@H](C)NCC31CCN(C(=O)OC(C)(C)C)CC1 [Compound 30, (S)-tert-butyl 7′-methoxy-1′-methyl-1′,2′,3′,9′-tetrahydrospiro[piperidine-4,4′-pyrido[3,4-b]indole]-1-carboxylate]"
14,577 to 1210,"COc1ccc2c3c([nH]c2c1)[C@H](CO)N(C(C)=O)CC31CCN(C(=O)Nc2ccccc2C(F)(F)F)CC1 [Compound 57, (R)-2′-acetyl-1′-(hydroxymethyl)-7′-methoxy-N-(2-(trifluoromethyl)phenyl)-1′,2′,3′,9′-tetrahydrospiro[piperidine-4,4′-pyrido[3,4-b]indole]-1-carboxamide]"
15,1450 to 1980,"COc1ccc2c3c([nH]c2c1)[C@H](CO)N(C(C)=O)CC31CCN(C(=O)Nc2cccnc2)CC1 [Compound 52, (R)-2′-acetyl-1′-(hydroxymethyl)-7′-methoxy-N-(pyridin-3-yl)-1′,2′,3′,9′-tetrahydrospiro[piperidine-4,4′-pyrido[3,4-b]indole]-1-carboxamide]"

row,Compound,EC50 [nM]
1,"COc1ccc2c3c([nH]c2c1)[C@H](CO)N(C(=O)C1CCOCC1)CC31CCN(Cc2nccs2)CC1 [Compound 104, (R)-(1′-(hydroxymethyl)-7′-methoxy-1-(thiazol-2-ylmethyl)spiro[piperidine-4,4′-pyrido[3,4-b]indol]-2′(1′H,3′H,9′H)-yl)(tetrahydro-2H-pyran-4-yl)methanone]",467
2,"COc1cccc(CN2CC3(CCN(Cc4ccccn4)CC3)c3c([nH]c4cc(OC)ccc34)[C@@H]2CO)c1 [Compound 127, (R)-(7′-methoxy-2′-(3-methoxybenzyl)-1-(pyridin-2-ylmethyl)-1′,2′,3′,9′-tetrahydrospiro [pipendine-4,4′-pyrido[3,4-b]indol]-1′-yl) methanol]",1790
3,"COc1ccc2c3c(n(C)c2c1)[C@H](CO)N(CC1CCOCC1)CC31CCN(Cc2nccs2)CC1 [Compound 112, (R)-(7′-methoxy-9′-methyl0-2′-((tetrahydro-2H-pyran-4-yl)methyl)-1-(thiazol-2-ylmethyl)-1′,2′,3′,9′-tetrahydrospiro [piperidine-4,4′-pyrido [3,4-b]indol]-1′-yl) methanol]",1100
